In turn, `O=C(Nc1cccc2ccccc12)N1C(=O)C2(CCCCC2)NC12CCCCC2` came in with a melting point of 157 to 160 °C. For the molecule `CC(C)(C)c1nc(C=Cc2cccnc2)ncc1O`, the melting point was in the range of 150 to 151 °C. Molecule `O=C(NC/C=C\COc1cc(CN2CCCC2)ccn1)c1cn[nH]c1` registered a melting point of 57 to 61 °C. With `O=[N+]([O-])c1ccc(F)c(Br)c1O`, the melting point fell in the range of 65 to 66 °C. Molecule `O=S1CCN(c2nc(N3CCNCC3)cc3c(F)cccc23)CC1` gave a melting point of 213 to 215 °C. For `COc1cc(NC(C)CCCN2C(=O)c3ccccc3C2=O)c2nccc(C=Cc3cccc(C(F)(F)F)c3)c2c1` (stereo not drawn), the melting point is 154 to 156 °C. As for `O=C(NCCNCC1COc2ccccc2O1)C12CC3CC(CC1C3)C2` (stereo not drawn), the melting point lay within 143 to 144 °C. Take `Cc1cc(-n2ccnc2)c2cccc(OCc3c(Cl)ccc(S(=O)(=O)N4CCC[C@H]4C(=O)NCC4CCN(CC(=O)OC(C)(C)C)CC4)c3Cl)c2n1`: the melting point came out at 100 °C.

Take `N#Cc1ccc(C(=O)NCc2ccc(N3CC(C(=O)O)OC3=O)cc2)cc1` (stereo not drawn): the melting point turned out to be 234 °C.

`CCCc1ccc(-c2ccc(C(=O)N3Cc4cccn4Cc4ccccc43)cc2)cc1`: the melting point is 118 to 120 °C.

Molecule `COC(=O)C[C@H]1[C@H](NC(=O)OC(C)(C)C)CCN1C(=O)OCc1ccccc1` (relative stereo) returned a melting point of 73 to 74 °C. With `CCc1nn(Cc2noc(O)n2)c(CC)c1Oc1cc(Cl)cc(Cl)c1`, the melting point was in the range of 94 to 96 °C. As for `CCOC(=O)CNC(=O)COc1ccc(C=O)cc1`, the figure is 94.5 to 95.5 °C. `COc1cc(CCNC(=O)N(C)O)cc(OC)c1` showed a melting point of 121 to 123 °C. The value for `O=C(O)[C@H](Cc1c[nH]c2ccccc12)NS(=O)(=O)c1ccc(F)cc1` was 57 to 60 °C; that for `O=C=Nc1cccc(-c2nc3ccccc3c(=O)o2)c1` was 115 to 121 °C. Molecule `CCN(CC)CCC1CCN(C(=O)N2c3ccccc3C(=O)Nc3cccnc32)CC1` came in with a melting point of 154 °C. The value for `C=CCCCC(C#N)(C#N)Cc1ccc(C#N)cc1` was 91.5 °C; that for `O=C1CCC(N2Cc3cc(CNC(=O)c4ccc(Cl)cc4)ccc3C2=O)C(=O)N1` (stereo not drawn) was 278 to 280 °C; that for `CN(C)CCNC(=O)c1cn(C)c(=O)c2nc3ccccc3nc12` was 215 to 218 °C. The value for `CC(C)(C)c1cc(SCCOC(=O)c2cc(C(C)(C)C)c(OC(=O)c3cc(C(C)(C)C)c(O)c(C(C)(C)C)c3)c(C(C)(C)C)c2)cc(C(C)(C)C)c1O` was 168 to 170 °C. In turn, `CCOCC1(F)CCN(c2ccc(N3C[C@H](CNC(C)=O)OC3=O)cc2F)CC1` showed a melting point of 109 to 111 °C. Take `CC1=C(Cc2ccc(OC(F)(F)F)cc2)C(=O)c2ccccc2C1=O`: the melting point was in the range of 64 to 65 °C. With `O=C(Nc1ccccc1)c1cccc(-c2ccc(OCC(O)CCc3cccnc3)cc2)c1` (stereo not drawn), the melting point fell in the range of 90 to 93 °C.

In turn, `CN1C(=O)C(C2=COc3cc4ccccc4cc3O2)=C(c2cn(C(=O)OC(C)(C)C)c3ccccc23)C1=O` yielded a melting point of 158 °C. As for `COCCOc1nc(C)nc(N2CCC(c3ccc(F)cc3)CC2)c1[N+](=O)[O-]`, the figure is 45 to 48 °C; as for `C[C@@H](NC(=O)c1ccc(-c2ccccn2)s1)[C@](O)(Cn1cncn1)c1ccc(F)cc1F`, 212 to 213 °C. Regarding `CC1CC(=O)N(Cc2ccccc2)c2ccccc2N1C(=O)CN1C(=O)c2ccccc2C1=O` (stereo not drawn), the melting point lay in the range of 248 to 250 °C. As for `CCOc1ccc(CNC(=O)C(=O)NCCc2ccccn2)c(OC)c1`, the figure is 117 to 118 °C; as for `O=c1ncc(Cl)cn1CC(O)CO` (stereo not drawn), 136 to 138 °C; as for `COC(=O)C(C#N)c1cccc2ccc(OC)cc12` (stereo not drawn), 80 to 82 °C. Take `CC(Br)C(=O)NS(=O)(=O)c1ccc2c(c1)CC(C)(C)O2` (stereo not drawn): the melting point is 125 to 128 °C. `CCOC(=O)C(=C(c1ccc(F)cc1)c1ccc(F)cc1)n1nnnc1C` gave a melting point of 103 to 104 °C.

These data come from a melting point compilation (Tetko et al.; mined from patent text by program, amines drawn as free bases though some values may be those of a salt).
